Data as given in patent US20240342273A1, “IMMUNOTHERAPEUTIC METHOD FOR INCREASING CASHEW TOLERANCE IN A SUBJECT” (DBV Technologies, priority 2021, published 2024).
Entries after “also recorded” stand apart in the source; their conditions may differ.

Tests used:
cashew-sensitized mice = assay: Oral cashew challenge after 8 weeks of EPIT (anaphylaxis: body temperature, clinical symptoms, mMCP-1); conditions: Tregitope co-administered with cashew allergen extract by epicutaneous route, cashew-sensitized mouse model
[1] = system: re-stimulated splenocytes; assay: In vitro culture of spleen cells with or without cashew stimulation (proliferation, cytokine production); format: cell-based, mice; conditions: splenocytes after 8 weeks of EPIT
Experimental: (§1) Sensitized mice were then treated by epicutaneous immunotherapy using Viaskin patches: • 10 mice were treated with viaskin containing excipient (Phosphate buffer 0.1 M+DMSO) • 10 mice were treated with viaskin containing 50 μg cashew protein (Stallergenes Greer, ref XPF84D3A2.5), • 10 mice were treated with viaskin containing 50 μg cashew protein+50 μg T1 • 10 mice were treated with viaskin containing 50 μg cashew protein+50 μg T2 • 10 mice were treated with viaskin containing 50 μg cashew protein+50 μg T3 • 10 mice were treated with viaskin containing 50 μg cashew protein+50 μg T1+50 μg T2+50 μg T3 • 10 mice were treated with viaskin containing 50 μg T1+50 μg T2+50 μg T3 m Tregitopes T1, T2 and T3 correspond to the homologs of human Tregitopes of SEQ ID NO: 1, SEQ ID NO:2 and SEQ ID NO:3, respectively. The N-terminus of the tested peptides was acetylated (CH3(C═O)—) while the C-terminus was amidated (—NH2) to prevent degradation by protease. […]
(§2) Anaphylactic reactions were characterized by a drop in body temperature and the occurrence of clinical symptoms. […] Cashew-specific IgE, IgG1 and IgG2a were measured by in house ELISA. […]

CD62L+/FoxP3+ Tregs = assay: Phenotyping of Tregs by FACS in spleen and brachial lymph nodes; format: in vivo, mice; conditions: after 8 weeks of EPIT; Tregitope co-administered with cashew
Experimental: as §1, §2

T2: mTregitope from IgG1 (CH), EEQFNSTFRSVSELPIMHQ, homolog of human Tregitope SEQ ID NO: 2 (Ac-EEQFNSTFRSVSELPIMHQ-NH2) [Tregitope T2]
potentiation of the efficacy of EPIT for providing tolerance to cashew (cashew-sensitized mice): clearly potentiate; also recorded: particularly marked
Th2 cytokines (IL-4) in re-stimulated splenocytes (FIG. 2D) [1]: down-modulation
cashew specific T-cell proliferation (FIG. 2C) [1]: reduced
numbers of CD62L+/FoxP3+ Tregs in skin-draining lymph nodes (FIG. 2B) (CD62L+/FoxP3+ Tregs): increase
numbers of CD62L+/FoxP3+ Tregs in spleens (FIG. 2A) (CD62L+/FoxP3+ Tregs): increase
